In data set [1] the target is FLT4/VEGFR3 (Homo sapiens, UniProt P35916). Description: Kinase IC50, 33P labeled isotope method. It is filed as biochemical.
Data set [2] has as its target GSK3b (Homo sapiens, UniProt P49841). Description: Kinase IC50, 33P labeled isotope method. It is filed as biochemical. Particulars: 20 μM ATP.
For data set [3], the target named is T1, FLT3 (Homo sapiens, UniProt P36888).
T1 sequence (P36888 610-943 limits assumed): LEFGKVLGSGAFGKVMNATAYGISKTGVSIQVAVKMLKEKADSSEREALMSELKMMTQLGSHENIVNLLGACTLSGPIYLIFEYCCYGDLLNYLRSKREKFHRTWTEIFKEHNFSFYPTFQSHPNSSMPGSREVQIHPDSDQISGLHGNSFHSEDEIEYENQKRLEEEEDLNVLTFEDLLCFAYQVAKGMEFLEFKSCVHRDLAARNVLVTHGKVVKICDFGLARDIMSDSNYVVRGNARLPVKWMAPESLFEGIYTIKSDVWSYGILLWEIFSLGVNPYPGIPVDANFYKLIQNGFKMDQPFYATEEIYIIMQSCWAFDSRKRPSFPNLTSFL
Description: Kinase IC50, 33P labeled isotope method. As to conditions: 20 μM ATP. It is filed as biochemical.

Data set [4] concerns Candida tropicalis. Description: Antifungal activity, modified broth microdilution. It is filed as cell-based. Particulars: Candida tropicalis; 48 hours at 35, approximately 50% reduction of growth.
The subject of data set [5] is Candida parapsilosis. Description: Antifungal activity, modified broth microdilution. It is filed as cell-based. Particulars: Lodderomyces parapsilosis; 48 hours at 35, approximately 50% reduction of growth. (Dilution methods test growth across graded concentrations, often in twofold steps.)
Data set [6] relates to Cryptococcus neoformans. Description: Antifungal activity, modified broth microdilution. In kind it is cell-based. Particulars: Cryptococcus neoformans; 48 hours at 35, approximately 50% reduction of growth.
Data set [7] has as its system Candida albicans - ATCC 36082. Description: Antifungal activity, modified broth microdilution. As to conditions: Candida albicans, ATCC36082; 48 hours at 35, approximately 50% reduction of growth. It is filed as cell-based.
Data set [8] has as its system Phytophthora infestans. It is filed as in vivo.
In data set [9] the target is CDK6/cyclin D1 (Homo sapiens, UniProt Q00534). Description: Kinase IC50, 33P labeled isotope method. It is filed as biochemical.
For data set [10], the target named is CDK9/cyclin K (Homo sapiens, UniProt P50750). Description: Kinase IC50, 33P labeled isotope method. In kind it is biochemical. Particulars: 20 μM ATP.
Data set [11] deals with lung cancer cell H1299. Description: Anti-tumor activity in vitro, MTT method. As to conditions: Homo sapiens, NCI-H1299, 48 h, read-out: H1299 (IC50/μM). It is filed as cell-based. In general terms: Tetrazolium assays rely on reduction of a dye to a coloured formazan, in cell work by metabolically active cells.

In brackets after ≈: the same amount, converted by molar mass. Where two headings read alike, the source gives them in different places.

CDK9/cyclin K, sequence (P50750 19-315 limits assumed): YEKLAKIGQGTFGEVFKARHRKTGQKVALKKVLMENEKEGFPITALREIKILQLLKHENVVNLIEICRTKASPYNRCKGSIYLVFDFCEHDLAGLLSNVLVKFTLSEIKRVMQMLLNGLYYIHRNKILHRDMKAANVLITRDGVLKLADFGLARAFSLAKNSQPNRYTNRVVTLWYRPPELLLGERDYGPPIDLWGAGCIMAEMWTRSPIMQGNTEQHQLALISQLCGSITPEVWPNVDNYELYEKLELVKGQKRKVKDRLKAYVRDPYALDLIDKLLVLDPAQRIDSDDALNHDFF
CDK9/cyclin K, sequence (O75909 whole entry partner): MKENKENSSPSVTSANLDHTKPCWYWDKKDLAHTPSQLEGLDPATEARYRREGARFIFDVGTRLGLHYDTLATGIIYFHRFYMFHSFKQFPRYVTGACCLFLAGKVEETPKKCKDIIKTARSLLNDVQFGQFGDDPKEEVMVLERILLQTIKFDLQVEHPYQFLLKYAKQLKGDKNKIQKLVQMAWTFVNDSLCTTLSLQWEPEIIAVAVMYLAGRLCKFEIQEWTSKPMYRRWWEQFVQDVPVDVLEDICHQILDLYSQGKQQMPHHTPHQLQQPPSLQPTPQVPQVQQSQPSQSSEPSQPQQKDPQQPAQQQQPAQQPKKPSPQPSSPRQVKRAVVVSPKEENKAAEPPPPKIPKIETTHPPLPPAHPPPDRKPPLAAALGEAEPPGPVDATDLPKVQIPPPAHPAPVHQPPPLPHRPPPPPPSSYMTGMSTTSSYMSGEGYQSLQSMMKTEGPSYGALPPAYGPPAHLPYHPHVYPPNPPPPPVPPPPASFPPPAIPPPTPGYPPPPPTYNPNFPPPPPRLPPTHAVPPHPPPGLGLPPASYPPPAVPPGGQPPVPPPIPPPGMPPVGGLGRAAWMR
GSK3b, sequence (P49841 56-340 limits assumed): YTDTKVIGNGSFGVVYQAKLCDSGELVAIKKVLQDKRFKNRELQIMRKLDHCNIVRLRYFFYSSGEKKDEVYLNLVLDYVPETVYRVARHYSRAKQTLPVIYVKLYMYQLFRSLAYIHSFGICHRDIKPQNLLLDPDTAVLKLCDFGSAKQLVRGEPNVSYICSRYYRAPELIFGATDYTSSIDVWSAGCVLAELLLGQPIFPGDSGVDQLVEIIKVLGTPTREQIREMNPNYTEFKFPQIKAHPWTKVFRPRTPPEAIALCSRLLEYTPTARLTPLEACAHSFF
CDK6/cyclin D1, sequence (Q00534 13-300 limits assumed): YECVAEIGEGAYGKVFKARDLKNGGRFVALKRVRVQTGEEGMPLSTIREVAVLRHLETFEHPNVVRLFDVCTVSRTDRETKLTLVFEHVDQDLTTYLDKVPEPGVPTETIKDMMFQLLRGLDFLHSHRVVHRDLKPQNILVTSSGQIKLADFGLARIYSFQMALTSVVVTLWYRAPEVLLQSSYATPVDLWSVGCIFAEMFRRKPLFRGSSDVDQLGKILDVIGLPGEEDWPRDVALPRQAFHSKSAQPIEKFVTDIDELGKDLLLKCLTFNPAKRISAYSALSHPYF
CDK6/cyclin D1, sequence (P24385 whole entry partner): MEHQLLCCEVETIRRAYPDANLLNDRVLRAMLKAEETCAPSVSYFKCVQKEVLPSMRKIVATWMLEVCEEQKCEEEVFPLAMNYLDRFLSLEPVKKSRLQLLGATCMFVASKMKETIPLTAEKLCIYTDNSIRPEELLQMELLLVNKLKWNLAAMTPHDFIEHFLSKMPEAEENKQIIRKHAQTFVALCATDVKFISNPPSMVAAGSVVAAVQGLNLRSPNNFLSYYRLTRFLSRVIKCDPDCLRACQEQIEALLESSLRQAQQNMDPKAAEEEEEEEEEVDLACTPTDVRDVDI
FLT4/VEGFR3, sequence (P35916 845-1173 limits assumed): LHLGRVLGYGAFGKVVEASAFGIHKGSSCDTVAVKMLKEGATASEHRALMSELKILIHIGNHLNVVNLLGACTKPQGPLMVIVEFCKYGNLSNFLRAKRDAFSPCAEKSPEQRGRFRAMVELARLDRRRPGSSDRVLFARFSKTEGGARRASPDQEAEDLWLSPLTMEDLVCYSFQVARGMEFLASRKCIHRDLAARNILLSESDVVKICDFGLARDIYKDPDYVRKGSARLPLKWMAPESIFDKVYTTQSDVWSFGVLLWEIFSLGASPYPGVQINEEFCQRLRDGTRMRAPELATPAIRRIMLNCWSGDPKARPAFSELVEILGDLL

By MIC is commonly meant the least concentration at which growth counts as inhibited. Read a high MIC as a less susceptible organism. `CN1CCN(Cc2ccc(NC(=O)c3n[nH]cc3Nc3ncnc4[nH]ccc34)cc2)CC1` [Compound I-11, 4-(4-(7H-pyrrolo[2,3-d]pyrimidinyl)amino)-N-(4-((4-methyl-1-piperazinyl)methyl)phenyl)-1H-3-pyrazolecarboxamide]: the IC50 in [1] is 4 nM; in data set [2], 1 nM; in data set [3], 1 nM; in [9], 4 nM. Further, the MIC in data set [4] is 7.72 µg/mL (≈ 17.9 µM); in data set [5], 11.2 µg/mL (≈ 26 µM); in data set [6], 15 µg/mL (≈ 34.8 µM); in data set [7], 7.45 µg/mL (≈ 17.3 µM). Besides, the “Severity of tomato leaf blight” value in [8] (0.0001 (unit not given)) was “+++ (40-60% blight)”; in data set [8] (0.001 (unit not given)), “++ (15-40% blight)”; in data set [8] (0.01 (unit not given)), “+ (0-15% blight)”; in data set [8] (0.1 (unit not given)), “−”.

The melting point is the temperature, or range, at which the solid turns liquid. For the compound `CN1CCN(Cc2ccc(NC(=O)c3n[nH]cc3Nc3ncnc4occc34)cc2)CC1` [Compound I-21, 4-(4-furo[2,3-d]pyrimidinylamino)-N-(4-((4-methyl-1-piperazinyl)methyl)phenyl)-1H-3-pyrazolecarboxamide], the melting point was in the range of 255 to 257 °C. For the same compound, in data set [2], the IC50 was determined as 1 nM. Besides, the IC50 in data set [3] turned out to be 1 nM. In addition, in data set [4], inhibition of growth (MIC) required 8.29 µg/mL (≈ 19.2 µM). The same compound registered an MIC in [5] of 9.76 µg/mL (≈ 22.6 µM). The minimum inhibitory concentration (MIC) in data set [6] turned out to be 13.8 µg/mL (≈ 32 µM). Further, in data set [7], the MIC was 7.82 µg/mL (≈ 18.1 µM). In data set [10], this compound registered an IC50 of 45 nM. Besides, in [8] (0.0001 (unit not given)), the “Severity of tomato leaf blight” value is reported as “++++ (>60% blight)”. Also, the “Severity of tomato leaf blight” value in data set [8] (0.001 (unit not given)) was “++ (15-40% blight)”. In [8] (0.01 (unit not given)), the “Severity of tomato leaf blight” value is “+ (0-15% blight)”. Besides, the “Severity of tomato leaf blight” value in [8] (0.1 (unit not given)) is on record as “−”. Besides, in [11], the IC50 turned out to be 7.66 µM.

The compound `Cc1cc2c(Nc3c[nH]nc3C(=O)Nc3ccc(CN4CCN(C)CC4)cc3)ncnc2s1` [Compound I-3, 4-(4-(6-methylthieno[2,3-d]pyrimidinyl)amino)-N-(4-((4-methyl-1-piperazinyl)methyl)phenyl)-1H-3-pyrazolecarboxamide] displayed a melting point of 235 to 238 °C. In addition, the IC50 in data set [1] (20 μM ATP, read-out: IC50* FLT4/VEGFR3) came to 4 nM. The compound further gave an IC50 in data set [2] of 1 nM. This compound also gave an IC50 in data set [10] of 37 nM. In addition, in data set [9] (20 μM ATP, read-out: IC50* CDK6/cyclin D1), the IC50 was determined as 4 nM.

As to `Cc1cc2c(Nc3c[nH]nc3C(=O)Nc3ccc(CN4CCN(C)CC4)cc3)nccc2s1` [Compound I-27, 4-(4-(2-methylthieno[3,2-c]pyridyl)amino)-N-(4-((4-methyl-1-piperazinyl)methyl)phenyl)-1H-3-pyrazolecarboxamide], the melting point lay within 267 to 269 °C. Besides, the IC50 in [2] worked out at 1 nM. For the same compound, the IC50 in data set [3] stood at 1 nM. Moreover, in [4], the minimum inhibitory concentration (MIC) came to 3.57 µg/mL (≈ 7.73 µM). Moreover, inhibition of growth in data set [5] (MIC) required 1.02 µg/mL (≈ 2.21 µM). The compound also yielded an MIC in [6] of 4.06 µg/mL (≈ 8.8 µM). The minimal inhibitory concentration (MIC) in data set [7] is 5.48 µg/mL (≈ 11.9 µM). The compound further gave an IC50 in [10] of 43 nM. Besides, the “Severity of tomato leaf blight” value in [8] (0.0001 (unit not given)) is on record as “++++ (>60% blight)”. Besides, in [8] (0.001 (unit not given)), the “Severity of tomato leaf blight” value is recorded as “++ (15-40% blight)”. The “Severity of tomato leaf blight” value in data set [8] (0.01 (unit not given)) is reported as “+ (0-15% blight)”. For the same compound, the “Severity of tomato leaf blight” value in [8] (0.1 (unit not given)) is on record as “−”.
